The text below walks through data of patent US20260250322A1, “NEW PEPTIDES AS SELECTIVE IL-23 RECEPTOR INHIBITORS” (SANOFI, priority 2023, published 2026).

Data set [1] can be described thus: Protease stability in simulated intestinal fluids (FaSSIF). The format is in vitro ADME. To be noted: 37° C.; for FaSSIF 0 (min), remaining percentage of peptide compound: 0 min (set to 100%), 1 μM; for remaining at 1 h, 1 μM / remaining at 2 h, 1 μM / remaining at 4 h, 1 μM: simulated intestinal fluid (FaSSIF), protease stability; for remaining at 1 h, 1 μM: 60 min, read-out: FaSSIF 60 (min), remaining percentage of peptide compound; for remaining at 2 h, 1 μM: 120 min, read-out: FaSSIF 120 (min), remaining percentage of peptide compound; for remaining at 4 h, 1 μM: 240 min, read-out: FaSSIF 240 (min), remaining percentage of peptide compound. How it is done: Studies were carried out in simulated intestinal fluid (SIF) and simulated gastric fluid (SGF) to evaluate gastric stability of the peptide compounds of the disclosure. […]
Similarly, the term “Pancreatin-SIF” refers to a solution of simulated intestinal fluid containing pancreatin whereas “SIF-media” refers to a solution of simulated intestinal fluid without pancreatin. Pancreatin-SIF was prepared by dissolving 1 mg Pancreatin (MP Biomedicals) in 10 mL SIF media concentrate (ProSense). […]
To 76 μL of the Pepsin-SGF buffer, 4 μL of the 20 µM compound stock solution were added and incubated at 37° C. At each timepoint (0, 60, 120 and 240 minutes) the reaction was quenched with addition of 80 μL Ethanol (0.1% HCOOH). The samples were centrifuged for 20 minutes and an aliquot of the supernatant 100 μL were transferred to a LoBind-MTP plate and analyzed by LCMS/MS. The peak area response was calculated at each time point for each test compound. As internal reference, the peak area response of the same test compound at TO was calculated. The percent remaining at each timepoint was calculated based on the peak area response ratio of the test compound at TO. Time 0 was set to 100%, and all later timepoints were calculated relative to time 0.

Data set [2] concerns IL-23 induced STAT3 signaling. Briefly: Inhibition of IL-23 induced STAT3 signaling in HEK-Blue IL-23 cells (SEAP reporter). The format is cell-based. To be noted: human IL-23 0.25 ng/ml, read-out: Inhibition of IL-23 induced pSTAT3 (IC50 nM). Put shortly:
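HEK-Blue IL-23 cells (10,000/well) preincubated 60 min at 37 °C with serially diluted compound, then stimulated overnight with human IL-23 (0.25 ng/ml final). STAT3-driven SEAP in supernatant read with QUANTI-Blue after 45 min at room temperature, OD 620-655 nm; dose-response fitted.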

In data set [3] the target is T1, human IL-23R (Homo sapiens, UniProt Q5VWK5).
T1 sequence (Q5VWK5 24-355 limits assumed): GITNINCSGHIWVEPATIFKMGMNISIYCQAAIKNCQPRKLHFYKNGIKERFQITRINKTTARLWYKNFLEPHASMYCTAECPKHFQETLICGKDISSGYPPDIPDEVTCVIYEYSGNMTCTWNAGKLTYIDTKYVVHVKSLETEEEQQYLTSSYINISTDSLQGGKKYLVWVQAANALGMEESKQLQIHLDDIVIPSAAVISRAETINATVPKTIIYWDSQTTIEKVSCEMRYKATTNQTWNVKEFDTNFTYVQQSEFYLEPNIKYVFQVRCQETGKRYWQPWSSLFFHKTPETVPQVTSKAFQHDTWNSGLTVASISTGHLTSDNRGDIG
Nature of the data set: Human ELISA IL-23/IL-23R binding inhibition. To be noted: human IL-23 coated, recombinant human IL-23R-Fc chimera. Put shortly:
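Plates coated with human IL-23 at 1 μg/ml overnight at 4° C; serially diluted peptides added with recombinant human IL-23R-Fc at 0.1 μg/ml final, 60 min at RT. Bound receptor detected with anti-human IgG1-HRP and a fluorogenic peroxidase substrate.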

Data set [4] addresses T2, IL-23 receptor on the surface of HEK-Blue IL-23 cells (UniProt Q5VWK5 24-629, limits assumed).
T2 sequence (looked up): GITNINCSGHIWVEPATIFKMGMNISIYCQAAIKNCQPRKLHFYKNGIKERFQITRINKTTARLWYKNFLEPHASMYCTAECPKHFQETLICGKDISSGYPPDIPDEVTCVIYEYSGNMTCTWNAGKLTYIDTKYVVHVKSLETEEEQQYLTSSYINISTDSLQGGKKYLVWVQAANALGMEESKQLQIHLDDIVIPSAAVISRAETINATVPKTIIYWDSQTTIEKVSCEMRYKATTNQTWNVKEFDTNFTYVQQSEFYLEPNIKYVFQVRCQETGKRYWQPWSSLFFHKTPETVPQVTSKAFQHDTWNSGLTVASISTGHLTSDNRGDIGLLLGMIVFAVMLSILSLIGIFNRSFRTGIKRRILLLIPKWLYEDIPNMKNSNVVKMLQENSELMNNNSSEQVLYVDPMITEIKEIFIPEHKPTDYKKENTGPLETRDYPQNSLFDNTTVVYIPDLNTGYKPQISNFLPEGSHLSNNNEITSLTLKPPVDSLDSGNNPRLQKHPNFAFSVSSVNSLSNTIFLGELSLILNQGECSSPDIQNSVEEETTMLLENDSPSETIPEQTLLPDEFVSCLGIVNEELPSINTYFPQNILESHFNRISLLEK
Briefly: cell-based or functional assay.

Data set [5] has as its target T3, recombinant human IL-23R-Fc chimera (human, UniProt Q5VWK5 24-353, limits assumed).
T3 construct: Recombinant reagent; also called interleukin-23 receptor; not shown: detected with goat anti-hu-IgG1-HRP antibody
T3 sequence (looked up): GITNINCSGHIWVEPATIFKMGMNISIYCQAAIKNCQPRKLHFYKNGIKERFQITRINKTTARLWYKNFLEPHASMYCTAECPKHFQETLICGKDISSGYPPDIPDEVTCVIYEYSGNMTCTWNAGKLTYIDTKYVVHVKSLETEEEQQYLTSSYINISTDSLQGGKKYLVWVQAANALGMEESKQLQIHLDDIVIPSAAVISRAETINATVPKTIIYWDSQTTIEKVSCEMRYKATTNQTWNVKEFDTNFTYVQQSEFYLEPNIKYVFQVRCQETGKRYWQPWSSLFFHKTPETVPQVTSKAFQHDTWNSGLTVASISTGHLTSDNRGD
Briefly: competition ELISA: coated human IL-23, IL-23R-Fc 0.1 ug/ml, peptide titrated. How it is done:
Antagonism of peptide compounds for human interleukin-23 receptor inhibitors, was determined by an ELISA assay.
A 384-well plate was coated with 50 μl/well of human IL-23 at a final concentration of 1 μg/ml and incubated overnight at 4° C. The wells were washed 3 times with 80 μl wash buffer and blocked with 80 μl blocking buffer for 60 minutes at room temperature and washed again. 20 μl of serially diluted test peptides was added to each well and subsequently 20 μl of recombinant human IL-23R-Fc chimera at final concentration of 0.1 μg/ml. The plate was incubated for 60 minutes at room temperature. After the wells were washed, bound IL-23R-Fc was detected with goat anti-hu-lgG1-HRP antibody. Signals were visualized with QuantaBlu Fluorogenic Peroxidase Substrate.
On the technique in general: In an ELISA, binding on a coated surface is turned into a signal by an enzyme label.

Numbered stars: 1 amine (or outer) side, 2 acyl side, 3 side chain; on linkers, the order of the positions; unused ones are H or OH. Bridge positions count the residues as written; N and C are the ends. Square brackets hold non-standard residues; d marks the D form. Primed or numbered codes have the meaning given here. Peptide text beside a SMILES is read from it. Tyr(Me)″ = O-methyl-tyrosine (4-methoxy-phenylalanine), COc1ccc(C[C@H](N[*:1])C(=O)[*:2])cc1; 1Nal = N[C@@H](Cc1cccc2ccccc12)C(=O)O; 2Nal = N[C@@H](Cc1ccc2ccccc2c1)C(=O)O; Cit = NC(=O)NCCC[C@H](N)C(=O)O; Orn = NCCC[C@H](N)C(=O)O; Aib = CC(C)(N)C(=O)O

A word on the fraction remaining: it is the share of the starting amount still present when the sample was taken. One may read the IC50 as the concentration that inhibits the measured activity by half.

As to `COc1ccc(C[C@@H]2NC(=O)[C@H](CCCNC(=N)N)NC(=O)[C@H](CCC(N)=O)NC(=O)[C@H](Cc3c[nH]c4ccccc34)NC(=O)[C@H]([C@@H](C)O)NC(=O)[C@H](CC(N)=O)NC(=O)[C@H](NC(C)=O)CCC(=O)NCCCC[C@@H](C(=O)N[C@@H](CC(N)=O)C(=O)N[C@@H](CC(N)=O)C(N)=O)NC(=O)C(C)(C)NC(=O)[C@H](Cc3cccc4ccccc34)NC2=O)cc1` [compound 11] (Ac-[dE]NTWQRY(Me)[1Nal][Aib]KNN-NH2; lactam 1-10), in data set [1], the “FaSSIF 0 (min), remaining percentage of peptide compound” value (from here on “FaSSIF 0 (min), remaining percentage”) is recorded as 100%; the amount remaining at 1 h, 1 μM was 4%; the share remaining at 2 h, 1 μM is 7%; the amount remaining at 4 h, 1 μM is 2%. The IC50 in data set [2] turned out to be 9280 nM.

With `COc1ccc(C[C@@H]2NC(=O)[C@H](CCCNC(=N)N)NC(=O)[C@H](CCC(N)=O)NC(=O)[C@H](Cc3c[nH]c4ccccc34)NC(=O)[C@H]([C@@H](C)O)NC(=O)[C@H](CC(N)=O)NC(=O)[C@H](NC(C)=O)CC(=O)NCCC[C@@H](C(=O)N[C@@H](CC(N)=O)C(=O)N[C@@H](CC(N)=O)C(N)=O)NC(=O)C(C)(C)NC(=O)[C@H](Cc3ccc4ccccc4c3)NC2=O)cc1` [compound 13] (Ac-[dD]NTWQRY(Me)[2Nal][Aib][Orn]NN-NH2; lactam 1-10), the IC50 in data set [3] was 6.24 nM. In data set [1], the “FaSSIF 0 (min), remaining percentage” value is given as 100%; the fraction remaining at 1 h, 1 μM was 2%; the share remaining at 2 h, 1 μM was 0%; the share remaining at 4 h, 1 μM was 3%. Also, the 50% inhibitory concentration (IC50) in data set [2] came to 1150 nM.

For `COc1ccc(C[C@@H]2NC(=O)[C@H](CCCNC(=N)N)NC(=O)[C@H](CCC(N)=O)NC(=O)[C@H](Cc3c[nH]c4ccccc34)NC(=O)[C@H]([C@@H](C)O)NC(=O)[C@H](CC(N)=O)NC(=O)[C@H](NC(C)=O)CCCCNC(=O)C[C@@H](C(=O)N[C@@H](CC(N)=O)C(=O)N[C@@H](CC(N)=O)C(N)=O)NC(=O)[C@H](CCCNC(N)=O)NC(=O)[C@H](Cc3cccc4ccccc34)NC2=O)cc1` [compound 18] (Ac-[dK]NTWQRY(Me)[1Nal][Cit]DNN-NH2; lactam 1-10), the IC50 in data set [3] was determined as 11.7 nM. For the same molecule, in data set [1], the “FaSSIF 0 (min), remaining percentage” value is 100%; the amount remaining at 1 h, 1 μM is 8%; the share remaining at 4 h, 1 μM is 11%. Moreover, in data set [2], the half-inhibitory concentration (IC50) is 10000 nM.

Take `COc1ccc(C[C@@H]2NC(=O)C(C)(C)NC(=O)[C@H](CCC(N)=O)NC(=O)[C@H](Cc3c[nH]c4ccccc34)NC(=O)[C@H]([C@@H](C)O)NC(=O)[C@H](CC(N)=O)NC(=O)[C@H](NC(C)=O)CCCCNC(=O)C[C@@H](C(=O)N[C@@H](CC(N)=O)C(=O)N[C@@H](CC(N)=O)C(N)=O)NC(=O)C(C)(C)NC(=O)[C@H](Cc3cccc4ccccc34)NC2=O)cc1` [compound 21] (Ac-[dK]NTWQ[Aib]Y(Me)[1Nal][Aib]DNN-NH2; lactam 1-10): the concentration for half-maximal inhibition (IC50) in data set [3] worked out at 16.9 nM. Besides, in data set [1], the “FaSSIF 0 (min), remaining percentage” value is on record as 100%; the fraction remaining at 1 h, 1 μM was 96%; the fraction remaining at 2 h, 1 μM was 98%; the share remaining at 4 h, 1 μM was 95%. Moreover, the half-maximal inhibitory concentration (IC50) in data set [2] was found to be 7500 nM.

B1: peptide compound SEQ ID NO: 4 (peptide)
peptide: Ac-[dK]NTWQRY[2Nal][Aib]DNN-NH2
modifications: lactam 1-10
notes: synthetic macrolactam
On to B1, for which, in data set [4], the “Inhibition of IL-23 induced pSTAT3 (IC50 nM)” value (“Inhibition” below) worked out at 339 nM. Besides, the IC50 in data set [5] was found to be 1.59 nM.

B2: peptide compound SEQ ID NO: 9 (peptide)
peptide: Ac-KNTWQR[Tyr(Me)″][1Nal][Aib]DNN-NH2
modifications: lactam 1-10
SMILES: COc1ccc(C[C@@H]2NC(=O)[C@H](CCCNC(=N)N)NC(=O)[C@H](CCC(N)=O)NC(=O)[C@H](Cc3c[nH]c4ccccc34)NC(=O)[C@H]([C@@H](C)O)NC(=O)[C@H](CC(N)=O)NC(=O)[C@@H](NC(C)=O)CCCCNC(=O)C[C@@H](C(=O)N[C@@H](CC(N)=O)C(=O)N[C@@H](CC(N)=O)C(N)=O)NC(=O)C(C)(C)NC(=O)[C@H](Cc3cccc4ccccc34)NC2=O)cc1
notes: synthetic macrolactam
B2: the “Inhibition” value in data set [4] amounted to 1610 nM. For the same molecule, in data set [5], the IC50 was determined as 3.55 nM.

B3: peptide compound SEQ ID NO: 28 (peptide)
peptide: Ac-[dK]NTWQR[Tyr(Me)″][2Nal]K(Ac)DNN-NH2
modifications: lactam 1-10
SMILES: COc1ccc(C[C@@H]2NC(=O)[C@H](CCCNC(=N)N)NC(=O)[C@H](CCC(N)=O)NC(=O)[C@H](Cc3c[nH]c4ccccc34)NC(=O)[C@H]([C@@H](C)O)NC(=O)[C@H](CC(N)=O)NC(=O)[C@H](NC(C)=O)CCCCNC(=O)C[C@@H](C(=O)N[C@@H](CC(N)=O)C(=O)N[C@@H](CC(N)=O)C(N)=O)NC(=O)[C@H](CCCCNC(C)=O)NC(=O)[C@H](Cc3ccc4ccccc4c3)NC2=O)cc1
notes: synthetic macrolactam
As for B3, the “Inhibition” value in data set [4] worked out at 2210 nM. Besides, in data set [5], the IC50 was 9.03 nM.
